Measurements as given in patent US20210128561A1, “MRGX Receptor Antagonists” (Rheinische-Friedrich-Wilhelms-Universität Bonn, priority 2019, published 2021).
Where two headings read alike, the source gives them in different places. Ends that are not written are not given here.

Experiments:
[1] = target: T1, MrgX2 (Homo sapiens, UniProt Q96LB1); conditions: calcium assays; cited from earlier work
T1 construct: host or cells: recombinant HEK cells (A3); CHEM1 cells recombinantly expressing MrgX2 (A11)
T1 sequence (Q96LB1 1-330): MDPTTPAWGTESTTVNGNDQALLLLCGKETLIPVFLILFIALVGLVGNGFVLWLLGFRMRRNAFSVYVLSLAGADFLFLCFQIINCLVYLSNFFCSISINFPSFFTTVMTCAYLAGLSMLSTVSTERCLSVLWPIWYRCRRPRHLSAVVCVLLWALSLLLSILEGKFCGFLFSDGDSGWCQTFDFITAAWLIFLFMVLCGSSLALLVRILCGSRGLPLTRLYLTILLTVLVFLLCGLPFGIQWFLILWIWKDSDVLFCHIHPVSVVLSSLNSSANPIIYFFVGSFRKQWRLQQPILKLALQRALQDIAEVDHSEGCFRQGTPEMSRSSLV

[2] = target: T1, MrgX2; conditions: versus CST-14, calcium mobilization; cited from earlier work
[3] = target: T1, MrgX2; conditions: read-out: EC50 value; calcium assays, MrgX2 activation; cited from earlier work
[4] = system: human LAD2 mast cells; conditions: cited from earlier work
[5] = target: T1, MrgX2; conditions: β-arrestin assay; cited from earlier work
[6] = target: T1, MrgX2; conditions: calcium mobilization assay; cited from earlier work
[7] = target: T2, human wildtype MrgX2 (Homo sapiens, UniProt Q96LB1); assay: calcium assay (LN229 cells recombinantly expressing human wildtype MrgX2); assay type: cell-based; conditions: for % inhibition ± SEM: test concentration not given
T2 construct: expressed in transfected cells; host or cells: LN229 cells
T2 sequence (Q96LB1 1-330): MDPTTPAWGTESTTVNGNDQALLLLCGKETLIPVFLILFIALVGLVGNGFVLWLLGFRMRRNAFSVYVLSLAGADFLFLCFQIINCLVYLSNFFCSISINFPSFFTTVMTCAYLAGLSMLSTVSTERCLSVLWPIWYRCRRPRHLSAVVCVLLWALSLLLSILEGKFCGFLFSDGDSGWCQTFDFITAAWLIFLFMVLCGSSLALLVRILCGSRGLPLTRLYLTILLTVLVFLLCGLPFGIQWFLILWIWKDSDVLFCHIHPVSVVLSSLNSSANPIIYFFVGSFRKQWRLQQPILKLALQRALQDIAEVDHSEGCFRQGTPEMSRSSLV

[8] = target: T3, human MrgX4 L83S (Homo sapiens, UniProt Q96LA9, L83S); assay: β-arrestin assay (CHO β-arrestin human MrgX4 L83S); assay type: cell-based; conditions: for % inhibition ± SEM: test concentration not given
T3 construct: expressed in transfected cells; host or cells: CHO beta-arrestin cells

[9] = system: CHEM1 cells without MrgX2 overexpression; conditions: cited from earlier work
[10] = target: T1, MrgX2; conditions: CHEM1 cell line recombinantly expressing MrgX2; cited from earlier work

T3 sequence (Q96LA9 whole entry L83S): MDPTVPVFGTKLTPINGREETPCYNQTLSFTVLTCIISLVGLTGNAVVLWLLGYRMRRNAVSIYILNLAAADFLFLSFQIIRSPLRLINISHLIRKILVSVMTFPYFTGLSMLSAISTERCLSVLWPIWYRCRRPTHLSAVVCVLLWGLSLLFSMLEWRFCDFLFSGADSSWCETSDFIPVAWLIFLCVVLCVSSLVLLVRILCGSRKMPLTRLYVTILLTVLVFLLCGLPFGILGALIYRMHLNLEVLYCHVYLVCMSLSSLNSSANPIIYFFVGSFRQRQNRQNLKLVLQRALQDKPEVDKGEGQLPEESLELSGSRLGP

## C[C@@H]1C[C@H]2Cc3ncc(-c4ccc5c(n4)C[C@@H]4C[C@@H](C)C[C@]56NCCC[C@H]46)cc3[C@]3(C1)NCCC[C@H]23 [Complanadine A]
[1]
  EC50: 5500 nM

## CC(=O)N1c2ccccc2Nc2ccccc21 [Compound 1, 1-(5H-10λ^2-phenazin-5-yl)ethan-lone]
[2]
  IC50: 1600 nM

## COc1ccc2c(c1)[C@@]13CCCC[C@H]1[C@@H](C2)NCC3 [3-methoxymorphinan]
[3]
  EC50: 4700 nM

## Gln-D-Trp(Formyl-)Phe-benzylester [QWF]
[4]; 100 μM QWF vs. 1 μM substance P, LAD2
  β-hexosaminidase release of SP and QWF together: 20%

## CN1CC[C@]23c4c5ccc(O)c4O[C@H]2[C@@H](O)C=C[C@H]3[C@H]1C5 [morphine]
[3]
  EC50: 4500 nM

## O=c1c2ccccc2[nH]c(=S)n1Cc1ccccn1 [compound 2, 3-(pyridine-2-ylmethyl)-2-thioxo-2,3-dihydro-4H-1λ^2-quinazolin-4-one]
[2]
  IC50: 2500 nM

## substance P (RPKPQQFFGLM-NH2; ends and bridges not checked; UniProt P20366 58-68, looked up)
[4]; 1 μM substance P, LAD2
  β-hexosaminidase release of SP alone: 60%
[4]; saikosaponin A study, stimulus stated as 30 μg/mL compound 48/80, LAD2
  β-hexosaminidase release of substance P alone: 100%

## CN1CC[C@@]23CCCC[C@@H]2[C@@H]1Cc1ccc(O)cc13 [dextrorphan]
[3]
  EC50: 1400 nM

## CN1CC[C@]2(c3cccc(O)c3)Cc3nc4ccccc4cc3C[C@H]2C1 [TAN-67]
[5]
  EC50: ~1000 nM
[6]
  EC50: ~1000 nM

## O=C(/C=C/c1ccc(O)cc1)c1ccc(O)cc1O [isoliquiritigenin, Isoliquiritigenin]
[4]; 50 μM isoliquiritigenin vs. 30 μg/mL (≈31.2 μM) compound 48/80, LAD2
  β-hexosaminidase release of compound 48/80 and isoliquiritigenin together: 40%

## C[C@H]1O[C@@H](O[C@H]2CC[C@@]3(C)[C@@H](CC[C@]4(C)[C@@H]3C=C[C@]35OC[C@@]6(CCC(C)(C)C[C@H]63)[C@@H](O)C[C@]54C)[C@]2(C)CO)[C@H](O)[C@@H](O[C@@H]2O[C@H](CO)[C@@H](O)[C@H](O)[C@H]2O)[C@H]1O [saikosaponin A, Saikosaponin A]
[4]; 0.50 μM saikosaponin A vs. 30 μg/mL (≈31.2 μM) compound 48/80, LAD2
  β-hexosaminidase release of substance P and saikosaponin A together: 30%

## CCCc1cc(=O)n2c(nc3ccccc32)[nH]1 [A-19]
[7]
  IC50: > 100000 nM
  % inhibition ± SEM: 27%
[8]
  IC50: 14700 ± 1300 nM

## CCc1c(CC(C)C)[nH]c2nc3ccccc3n2c1=O [C-78]
[7]
  IC50: 51.3 ± 19.1 nM
[8]
  IC50: 468 ± 52 nM

## CCCc1c(-c2ccccc2)[nH]c2nc3ccccc3n2c1=O [A-21]
[7]
  IC50: 12.1 ± 1.5 nM
[8]
  IC50: 583 ± 49 nM

## CC(C)c1cc(=O)n2c3ccccc3n(C)c2n1 [B-36]
[7]
  IC50: > 100000 nM
  % inhibition ± SEM: 10%
[8]
  IC50: > 100000 nM
  % inhibition ± SEM: 48%

## CCc1c(C(C)C)[nH]c2nc3cc(Br)c(Br)cc3n2c1=O [C-75]
[7]
  IC50: 36.8 ± 8.4 nM
[8]
  IC50: 890 ± 184 nM

## CCc1c(O)[nH]c2nc3ccccc3n2c1=O [A-24]
[7]
  IC50: > 100000 nM
  % inhibition ± SEM: 2%
[8]
  IC50: > 100000 nM
  % inhibition ± SEM: 16%

## CCc1c(C(C)C)[nH]c2nc3cc(C)c(C)cc3n2c1=O [B-39]
[7]
  IC50: 18.4 ± 5.4 nM
[8]
  IC50: 87.7 ± 36.8 nM

## CC(C)c1cc(=S)n2c(nc3ccccc32)[nH]1 [B-56]
[7]
  IC50: 3.94 ± 1.67 nM
[8]
  IC50: 148 ± 42 nM

## CCc1c(C(C)C)[nH]c2nc3c(C)cccc3n2c1=O [B-38]
[7]
  IC50: 54 ± 19.2 nM
[8]
  IC50: > 100000 nM
  % inhibition ± SEM: 15%

## Cc1[nH]c2nc3ccccc3n2c(=O)c1C [A-8]
[7]
  IC50: 2890 ± 240 nM
[8]
  IC50: 11600 ± 3700 nM

## CCCc1[nH]c2nc3ccccc3n2c(=O)c1CCC [B-45]
[7]
  IC50: > 100000 nM
  % inhibition ± SEM: 89%
[8]
  IC50: 214 ± 32 nM

## Cc1[nH]c2nc3ccccc3n2c(=O)c1CCO [B-34]
[7]
  IC50: > 100000 nM
  % inhibition ± SEM: −2%
[8]
  IC50: > 100000 nM
  % inhibition ± SEM: 22%

B1: CXCL14: small chemokine (C-X-C motif) ligand 14 (protein, UniProt O95715 35-111, looked up)
C-X-C motif chemokine 14: SKCKCSRKGPKIRYSDVKKLEMKPKYPHCEEKMVIITTKSVSRYRGQEHCLHPKLQSTKRFIKWYNAWNEKRRVYEE
[9]
  calcium release: not to mediate calcium release
[10]
  EC50: 570 nM
